For data set [1], the system named is Triton WR-1339-induced hyperlipidemia in rat. Kind of data set: antilipotropic effect in Triton WR-1339-induced hyperlipidemia in rat. Type of data set: in vivo, Wistar-strain male rats. The settings on record: 50 mg/kg oral, vs control. The source says:
Wistar-strain male rats of 5-9 week age were used as test animals. One test group consisting of six (6) rats.
[a] is a determined value obtained from the control group, and
[b] is a determined value obtained from the test group).

Data set [2] deals with Streptozotocin-induced diabetes in rat. Kind of data set: serum lipids lowering effect to Streptozotocin-induced diabetes in rat. The format is in vivo, Wistar-strain male rats. Conditions: 4 hours after 25 mg/kg oral, Streptozocin 100 mg/kg tail vein. Here is the method: Test for determining serum lipids lowering effect to Streptozotocin-induceddiabetes in rat
Wistar-strain male rats of 7 week age were used as test animals. One test group consisting of six (6) rats. 100 Milligrams/kg of Streptozocin was administered to the tail vein of the test rat, then 4th day after the administration with Streptozocin, 25 mg/kg of each of the test compounds which was suspended in 0.5%-CMC-Na aqueous solution was orally administered to the rat. Similar to the test group, to each of six (6) rats in control group was administered with Streptozocin, and further orally administered with 0.5%-CMC-Na aqueous solution without containing each of the test compounds.
4 Hours after the administration of each of the test compounds, the blood sample was taken from each of the test rats, and serum triglycerids was measured by using a test reagent of Triglyceride G-Test Wako (manufacturedby Wako Pure Chemicals, Co., Ltd.).

The subject of data set [3] is plasma high density lipoprotein cholesterol (HDLC). Kind of data set: increasing rate of plasma high density lipoprotein cholesterol (HDLC) concentration. The format is in vivo, male Wistar rats. Conditions: 300 mg/kg/day oral for 2 days; rat; vs control. The method, then:
Increasing rate (%) of plasma high density lipoportein cholesterol (HDLC) concentration which is performed by a carboxamide compound of the general formula (I) of the present invention was conducted as follows.
Seven-week-old male Wistar rats were used.
The test compound was orally administered for 2 days at a daily dose of 300 mg/kg body weight to each of six (6) rats in test group. The dosing vehicle was 0.5% sodium carboxylmethylcellulose solution, and the dosing volume was 5 ml/kg body weight.
Similar to the procedures taken to the rats in the test group, to each one of six (6) rats in control group was orally administered 0.5% sodium carboxymethylcelluose solution only.
On day 2, after fasting for 20 hours, blood was drawn from the jagular sinus with a heparinized syringe. Plasma was obtained by centrifugation.
Plasma HDLC was determined after precipitation of other lipid fraction with heparin and Ca^2+ by using HDL-C Kit-N (manufactured by Hihon Shoji Kabushiki Kaisha).
Increasing rate (%) of plasma HDLC concentration performed by a test compound was calculated from the formula as follows: [formula]

In another data set the test system is Wistar-strain male rats. Nature of the data set: Acute toxicity test. The settings on record: 2 g/kg oral; rat. The format is in vivo. The source says:
(§1) Each of carboxamide compounds represented by the formula (1), which is the active ingredient contained in pharmaceutical composition according to the present invention, was suspended in 5%-CMC-Na aqueous solution and administered orally to Wistar-strain male rats of 7 week age (one test group consisting of 6 rats) so as to observe the acute toxicity of each of the carboxamide compounds.
(§2) Thus, LD50 value of Test compound No. 2 is considered to higher than […]. Thus, carboxamide compounds represented by the formula (1) according to the present invention can be said as quite safety compounds.

A short description of the next data set: Acute toxicity test. The format is in vivo, Wistar-strain male rats. The settings on record: in vivo; oral; rat.
Excerpt: as §1, §2

For data set [4] the following is noted: large amount for a long period; animal test; cited from earlier work.
Setting [5] is: 24 hours after Triton WR-1339 (400 mg/kg, tail vein), read-out: lowering ratio of serum triglycerides, 24 hours after Triton WR-1339.
[6] abbreviates: 24 hours after Triton WR-1339 (400 mg/kg, tail vein), read-out: lowering ratio of total serum cholesterol, 24 hours after Triton WR-1339.
Where [7] appears, read: 48 hours after Triton WR-1339 (400 mg/kg, tail vein), read-out: lowering ratio of serum triglycerides, 48 hours after Triton WR-1339.
[8] abbreviates: 48 hours after Triton WR-1339 (400 mg/kg, tail vein), read-out: lowering ratio of total serum cholesterol, 48 hours after Triton WR-1339.

The values below come from patent publication US5081112A, “Method for treating hyperlipidemia” (Otsuka Pharmaceutical Factory Inc., priority 1986, dated 1992).

SMILES strings stand for the structures. Read-outs that look alike come from different tables or passages of the source.

Turning to `CCC(C)(Oc1ccc(C2(c3ccc(OC(C)(CC)C(=O)O)cc3)CCCCC2)cc1)C(=O)O` (stereo not shown) [Clinofibrate, reference compound], the inhibition in vivo at 50 mg/kg in data set [1] (setting [5]) worked out at 13.6%; in data set [1] (setting [6]), 9.8%; in data set [1] (setting [7]), 1.1%; in data set [1] (setting [8]), 1.9%. Also, the Serum triglyceride in data set [2] was 2,067 mg/dl.

For the molecule `CCOP(=O)(Cc1ccc(C(=O)Nc2ccc(Br)c(C#N)c2)cc1)OCC` [compound 76], the “Increasing rate (%) of high density lipids concentration in the serum (plasma HDLC)” value (shortened to “Increasing rate (%)”) in data set [3] is recorded as 111%.

Take `CCOP(=O)(Cc1ccc(C(=O)Nc2ccc(Br)cc2C#N)cc1)OCC` [compound 71]: the “Increasing rate (%)” value in data set [3] came out at 193%.

Take `CCOP(=O)(Cc1ccc(C(=O)N(Cc2ccccc2)c2ccc(Cl)cc2)cc1)OCC` [Test compound No. 2]: the lethal cases result in the data set with Wistar-strain male rats is “not any lathal case at all”. Further, the LD50 in “Acute toxicity test” is above 2000 mg/kg.

As to `CCOP(=O)(Cc1ccc(C(=O)Nc2ccc(C#N)cc2Br)cc1)OCC` [compound 75], in data set [3], the “Increasing rate (%)” value came out at 222%.

For the molecule `CCOP(=O)(Cc1ccc(C(=O)Nc2ccc(Br)cc2)cc1)OCC` [compound 8], the inhibition in vivo at 50 mg/kg in data set [1] (setting [5]) came to 86.8%; in data set [1] (setting [6]) it was 52.2%; in data set [1] (setting [7]) it was 92.5%; in data set [1] (setting [8]), 63.6%. The Serum triglyceride in data set [2] came out at 471 mg/dL.

In the case of `CCOC(=O)C(C)(C)Oc1ccc(Cl)cc1` [Clofibrate], the “formation of hepatic tumor” value in data set [4] is “the formation of hepatic tumor was observed”.
